Test system: PE13 passaged human breast tumor cells
Assay: Xenograft tumor growth after gamma secretase inhibition
Format: in vivo
Procedure: A) The average tumor volume from L-685-458 treated (n=5) versus control (n=7) animals is plotted for each day measured over 37 days. B) The tumor volume of individual L-685-458 treated and control mice is plotted for each day measured.
In alternative embodiments, gamma secretase activity was decreased using the small-molecule inhibitor L-685,458 (Yan et al., 2004, J. Neurosci. 24:2942) and the effect on tumor growth was assessed in a xenograft model. 20,000 PE13 passaged human breast tumor cells were injected into the mammary fat pads of NOD/SCID mice. The mice were then injected subcutaneously daily with 9 mg/kg L-685,458 (n=5) or vehicle control (n=7) for 25 days. Starting on day 11, the tumor volume was measured three times a week for a total of 48 days. […] The tumor volumes for individual mice are plotted in FIG. 13B. Thus inhibiting gamma secretase activity by using a small molecule gamma secretase inhibitor predicted to reduce Notch signaling reduced tumor growth.

CC(C)C[C@H](NC(=O)[C@H](Cc1ccccc1)C[C@@H](O)[C@H](Cc1ccccc1)NC(=O)OC(C)(C)C)C(=O)N[C@@H](Cc1ccccc1)C(N)=O [L-685,458]
growth of injected tumor cells (20,000 PE13 cells in mammary fat pads of NOD/SCID mice, 9 mg/kg subcutaneously daily for 25 days (n=5) vs vehicle control (n=7)): significantly inhibited the growth of injected tumor cells | average tumor volume (NOD/SCID mice, 9 mg/kg s.c. daily for 25 days, measured three times a week from day 11, total 48 days, vs vehicle control): reduced compared to control animals throughout the study
